From ChEMBL document CHEMBL4196065, “Design and synthesis of new hybrids from 2-cyano-3,12-dioxooleana- 9-dien-28-oic acid and O2-(2,4-dinitrophenyl) diazeniumdiolate for intervention of drug-resistant lung cancer” (Eur J Med Chem, 2018)
pIC50: −log10 of the molar value. Activity calls are given as the source filed them. No cut-off for these calls is given here.

Experiments:
A549 = assay: cells; settings: Homo sapiens, A549, 72 h
Description: Antiproliferative activity against human A549 cells after 72 hrs by MTT assay

[1] = Resistant factor, ratio of IC50 for human A549/TR cells to IC50 for human A549 cells; assay type: functional
A549/TR [2] = assay: Antiproliferative activity against human A549/TR cells after 72 hrs by MTT assay; assay type: functional, cell-based
A549/TR [3] = assay: Cell cycle arrest in human A549/TR cells assessed as accumulation at G0/G1 phase at 1.2 uM after 24 hrs by propidium iodide/RNase-staining based flow cytometric analysis (reference value: 62.5%); assay type: functional
A549/TR [4] = assay: Induction of apoptosis in human A549/TR cells assessed as viable cells at 2.4 uM after 24 hrs by Annexin-V-FITC/propidium iodide staining-based flow cytometric analysis (reference value: 95.1%); assay type: functional; settings: read-out: Activity
A549/TR [5] = assay: Induction of apoptosis in human A549/TR cells assessed as necrotic cells at 4.8 uM after 24 hrs by Annexin-V-FITC/propidium iodide staining-based flow cytometric analysis (reference value: 0.22%); assay type: functional
A549/TR [6] = assay: Induction of nitric oxide production in human A549/TR cells at 50 uM after 6 hrs by Griess assay; assay type: functional, cell-based
A549/TR [7] = assay: Induction of apoptosis in human A549/TR cells assessed as late apoptotic cells at 2.4 uM after 24 hrs by Annexin-V-FITC/propidium iodide staining-based flow cytometric analysis (reference value: 1.24%); assay type: functional
A549/TR [8] = assay: Cell cycle arrest in human A549/TR cells assessed as accumulation at G0/G1 phase at 4.8 uM after 24 hrs by propidium iodide/RNase-staining based flow cytometric analysis (reference value: 62.5%); assay type: functional
A549/TR [9] = assay: Induction of ROS generation in human A549/TR cells after 24 hrs by DCFH-DA dye-based flow cytometric analysis; assay type: functional, cell-based
A549/TR [10] = assay: Downregulation of Lon expression in human A549/TR cells after 24 hrs by Western blot analysis; assay type: functional, cell-based
A549/TR [11] = assay: Induction of apoptosis in human A549/TR cells assessed as early apoptotic cells at 2.4 uM after 24 hrs by Annexin-V-FITC/propidium iodide staining-based flow cytometric analysis (reference value: 3.42%); assay type: functional
A549/TR [12] = assay: Cell cycle arrest in human A549/TR cells assessed as accumulation at G0/G1 phase at 2.4 uM after 24 hrs by propidium iodide/RNase-staining based flow cytometric analysis (reference value: 62.5%); assay type: functional
A549/TR [13] = assay: Induction of apoptosis in human A549/TR cells assessed as early apoptotic cells at 4.8 uM after 24 hrs by Annexin-V-FITC/propidium iodide staining-based flow cytometric analysis (reference value: 3.42%); assay type: functional
A549/TR [14] = assay: Induction of apoptosis in human A549/TR cells assessed as necrotic cells at 2.4 uM after 24 hrs by Annexin-V-FITC/propidium iodide staining-based flow cytometric analysis (reference value: 0.22%); assay type: functional
MRC5 [15] = assay: Induction of nitric oxide production in human MRC5 cells at 50 uM after 6 hrs by Griess assay; assay type: cell-based; settings: mrc5, 6 h
A549/TR [16] = assay: Induction of apoptosis in human A549/TR cells assessed as early apoptotic cells at 1.2 uM after 24 hrs by Annexin-V-FITC/propidium iodide staining-based flow cytometric analysis (reference value: 3.42%); assay type: functional
A549/TR [17] = assay: Induction of apoptosis in human A549/TR cells assessed as viable cells at 4.8 uM after 24 hrs by Annexin-V-FITC/propidium iodide staining-based flow cytometric analysis (reference value: 95.1%); assay type: functional; settings: read-out: Activity
A549/TR [18] = assay: Growth inhibition of human A549/TR cells at 1 uM after 72 hrs in presence of ROS scavenger NAC by MTT assay; assay type: functional
A549/TR [19] = assay: Growth inhibition of human A549/TR cells at 1 uM after 72 hrs in presence of NO scavenger hemoglobin by MTT assay; assay type: functional
A549/TR [20] = assay: Antiproliferative activity against human A549/TR cells at 1 uM after 72 hrs by MTT assay; assay type: functional
MRC5 [21] = assay: Antiproliferative activity against human MRC5 cells after 72 hrs by MTT assay; assay type: cell-based; settings: MRC5, 72 h
A549/TR [22] = assay: Growth inhibition of human A549/TR cells at 1 uM after 72 hrs in presence of GSTpi inhibitor etacrynic acid by MTT assay; assay type: functional
A549/TR [23] = assay: Induction of apoptosis in human A549/TR cells assessed as late apoptotic cells at 4.8 uM after 24 hrs by Annexin-V-FITC/propidium iodide staining-based flow cytometric analysis (reference value: 1.24%); assay type: functional
A549/TR [24] = assay: Induction of apoptosis in human A549/TR cells assessed as necrotic cells at 1.2 uM after 24 hrs by Annexin-V-FITC/propidium iodide staining-based flow cytometric analysis (reference value: 0.22%); assay type: functional
[25] = Potency index, ratio of taxol IC50 to compound IC50 for antiproliferative activity against human A549/TR cells; assay type: functional
A549/TR [26] = assay: Induction of apoptosis in human A549/TR cells assessed as late apoptotic cells at 1.2 uM after 24 hrs by Annexin-V-FITC/propidium iodide staining-based flow cytometric analysis (reference value: 1.24%); assay type: functional
A549/TR [27] = assay: Induction of apoptosis in human A549/TR cells after 24 hrs by Annexin-V-FITC/propidium iodide staining-based flow cytometric analysis; assay type: functional, cell-based
A549/TR [28] = assay: Cell cycle arrest in human A549/TR cells assessed as accumulation at G2/M phase at 1.2 uM after 24 hrs by propidium iodide/RNase-staining based flow cytometric analysis (reference value: 24.7%); assay type: functional
A549/TR [29] = assay: Cell cycle arrest in human A549/TR cells assessed as accumulation at G2/M phase at 2.4 uM after 24 hrs by propidium iodide/RNase-staining based flow cytometric analysis (reference value: 24.7%); assay type: functional
A549/TR [30] = assay: Cell cycle arrest in human A549/TR cells after 24 hrs by propidium iodide/RNase-staining based flow cytometric analysis; assay type: functional
A549/TR [31] = assay: Cell cycle arrest in human A549/TR cells assessed as accumulation at G2/M phase at 4.8 uM after 24 hrs by propidium iodide/RNase-staining based flow cytometric analysis (reference value: 24.7%); assay type: functional
A549/TR [32] = assay: Induction of apoptosis in human A549/TR cells assessed as viable cells at 1.2 uM after 24 hrs by Annexin-V-FITC/propidium iodide staining-based flow cytometric analysis (reference value: 95.1%); assay type: functional; settings: read-out: Activity
A549/TR [33] = assay: Downregulation of Lon expression in human A549/TR cells at 4.8 uM after 24 hrs by Western blot analysis; assay type: functional, cell-based
A549/TR [34] = assay: Induction of ROS generation in human A549/TR cells at 2.4 to 9.6 uM after 24 hrs by DCFH-DA dye-based flow cytometric analysis; assay type: functional, cell-based

SMILES	pIC50 (A549)	Ratio IC50 [1]	pIC50 (A549/TR [2])	Activity (A549/TR [3])	viability at 2.4 µM (A549/TR [4])	Activity (A549/TR [5])	Activity (A549/TR [6])	Activity (A549/TR [7])	Activity (A549/TR [8])	Activity (A549/TR [11])	Activity (A549/TR [12])	Activity (A549/TR [13])	Activity (A549/TR [14])	Activity (MRC5 [15])	Activity (A549/TR [16])	viability at 4.8 µM (A549/TR [17])	Activity (A549/TR [20])	Activity (A549/TR [23])	Activity (A549/TR [24])	Activity (A549/TR [26])	also measured
CC(=O)O[C@H]1C(=O)[C@@]2(C)[C@H]([C@H](OC(=O)c3ccccc3)[C@]3(O)C[C@H](OC(=O)[C@H](O)[C@@H](NC(=O)c4ccccc4)c4ccccc4)C(C)=C1C3(C)C)[C@]1(OC(C)=O)CO[C@@H]1C[C@@H]2O [PACLITAXEL]	8.15	445	5.51	–	–	–	–	–	–	–	–	–	–	–	–	–	–	–	–	–	–
CN(CCO)/[N+]([O-])=N/Oc1cc(N2CCN(C(=O)[C@]34CCC(C)(C)C[C@H]3[C@H]3C(=O)C=C5[C@@]6(C)C=C(C#N)C(=O)C(C)(C)[C@@H]6CC[C@@]5(C)[C@]3(C)CC4)CC2)c([N+](=O)[O-])cc1[N+](=O)[O-]	5.97	0.3	6.46	61.3%	70%	3.15%	Active	14.4%	39.4%	12.8%	47.9%	15.8%	2.78%	Toxic	5.11%	59.7%	>50%	21.4%	0.27%	3.09%	Activity (A549/TR [9]): Dose-dependent effect; Activity (A549/TR [10]): Dose-dependent effect; growth inhibition (GI) (A549/TR [18]): inactive; growth inhibition (GI) (A549/TR [19]): inactive; pIC50 (MRC5 [21]): 5.79; growth inhibition (GI) (A549/TR [22]): inactive; Ratio IC50 [25]: 10; Activity (A549/TR [27]): Dose-dependent effect; Activity (A549/TR [28]): 28.3%; Activity (A549/TR [29]): 38.9%; Activity (A549/TR [30]): Dose-dependent effect; Activity (A549/TR [31]): 48.3%; viability at 1.2 µM (A549/TR [32]): 91.6%
CN(CCO)/[N+]([O-])=N/Oc1cc(NCCOC(=O)[C@]23CCC(C)(C)C[C@H]2[C@H]2C(=O)C=C4[C@@]5(C)C=C(C#N)C(=O)C(C)(C)[C@@H]5CC[C@@]4(C)[C@]2(C)CC3)c([N+](=O)[O-])cc1[N+](=O)[O-]	5.84	0.6	6.09	–	–	–	–	–	–	–	–	–	–	–	–	–	>50%	–	–	–	–
CCOC(=O)N1CCN(/[N+]([O-])=N/Oc2ccc([N+](=O)[O-])cc2[N+](=O)[O-])CC1	5.64	0.9	5.70	65.3%	92.1%	1.04%	Active	1.94%	47.7%	5.63%	54.4%	7.76%	0.37%	Toxic	6.75%	87%	–	4.19%	0.34%	2.38%	Activity (A549/TR [28]): 24.5%; Activity (A549/TR [33]): Active; Activity (A549/TR [34]): Active; Activity (A549/TR [29]): 32%; Activity (A549/TR [31]): 38.7%; viability at 1.2 µM (A549/TR [32]): 90.5%
CC1(C)CC[C@]2(C(=O)N3CCN(c4cc(O/N=[N+](\[O-])N5CCOCC5)c([N+](=O)[O-])cc4[N+](=O)[O-])CC3)CC[C@]3(C)[C@H](C(=O)C=C4[C@@]5(C)C=C(C#N)C(=O)C(C)(C)[C@@H]5CC[C@]43C)[C@@H]2C1	5.97	0.9	6.03	–	–	–	–	–	–	–	–	–	–	–	–	–	>50%	–	–	–	–
C[C@H](N)C(=O)OCCN(C)/[N+]([O-])=N/Oc1cc(N2CCN(C(=O)[C@]34CCC(C)(C)C[C@H]3[C@H]3C(=O)C=C5[C@@]6(C)C=C(C#N)C(=O)C(C)(C)[C@@H]6CC[C@@]5(C)[C@]3(C)CC4)CC2)c([N+](=O)[O-])cc1[N+](=O)[O-]	5.97	0.7	6.16	–	–	–	–	–	–	–	–	–	–	–	–	–	>50%	–	–	–	–
C[C@H](N)C(=O)OCCN(C)/[N+]([O-])=N/Oc1cc(NCCOC(=O)[C@]23CCC(C)(C)C[C@H]2[C@H]2C(=O)C=C4[C@@]5(C)C=C(C#N)C(=O)C(C)(C)[C@@H]5CC[C@@]4(C)[C@]2(C)CC3)c([N+](=O)[O-])cc1[N+](=O)[O-]	5.84	0.8	5.96	–	–	–	–	–	–	–	–	–	–	–	–	–	>50%	–	–	–	–
COC(=O)[C@]12CCC(C)(C)C[C@H]1[C@H]1C(=O)C=C3[C@@]4(C)C=C(C#N)C(=O)C(C)(C)[C@@H]4CC[C@@]3(C)[C@]1(C)CC2 [BARDOXOLONE METHYL]	5.68	0.8	5.77	62.3%	91.8%	0.17%	inactive	1.95%	47.4%	6.14%	54.7%	7.36%	0.13%	Non-Toxic	4.06%	83.4%	–	3.03%	0.14%	0.8%	Activity (A549/TR [28]): 24.9%; Activity (A549/TR [33]): Active; Activity (A549/TR [34]): Active; Activity (A549/TR [29]): 32.1%; Activity (A549/TR [31]): 39.4%; viability at 1.2 µM (A549/TR [32]): 94.9%
